38 compounds from patent US6653300B2, “Pyrazole compounds useful as protein kinase inhibitors” (Vertex Pharmaceuticals Incorporated, priority 2000, dated 2003) can be followed below.

Some results are limits rather than exact numbers.

For orientation: Ki means the dissociation constant of the complex between target and ligand, obtained from inhibition or displacement. A word on the melting point: it is the temperature, or range, at which the solid turns liquid.

In the first series the target is T1, GSK-3β (AA 1-420) (Homo sapiens, UniProt P49841).
T1 construct: GSK-3β (AA 1-420)
T1 sequence (P49841 whole entry, the tested form may be a part): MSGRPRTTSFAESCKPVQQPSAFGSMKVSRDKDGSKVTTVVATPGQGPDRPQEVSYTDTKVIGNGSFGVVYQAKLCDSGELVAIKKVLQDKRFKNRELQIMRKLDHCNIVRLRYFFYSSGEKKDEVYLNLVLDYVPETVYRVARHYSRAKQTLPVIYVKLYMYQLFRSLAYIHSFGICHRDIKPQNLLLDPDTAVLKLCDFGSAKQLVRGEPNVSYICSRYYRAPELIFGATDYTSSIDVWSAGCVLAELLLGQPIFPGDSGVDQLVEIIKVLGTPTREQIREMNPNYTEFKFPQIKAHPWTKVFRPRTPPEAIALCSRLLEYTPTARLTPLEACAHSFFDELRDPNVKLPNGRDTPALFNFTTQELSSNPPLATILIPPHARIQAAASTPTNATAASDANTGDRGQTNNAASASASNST
Description: Ki determination for the inhibition of GSK-3 (coupled enzyme system). Format: biochemical. The settings on record: 20 μM ATP, 20 nM GSK-3β, 30° C. The method, then:
Compounds were screened for their ability to inhibit GSK-3β (AA 1-420) activity using a standard coupled enzyme system (Fox et al. (1998) Protein Sci. 7, 2249). Reactions were carried out in a solution containing 100 mM HEPES (pH 7.5), 10 mM MgCl2, 25 mM NaCl, 300 μM NADH, 1 mM DTT and 1.5% DMSO. Final substrate concentrations in the assay were 20 μM ATP (Sigma Chemicals, St Louis, Mo.) and 300 μM peptide (HSSPHQS (PO3H2) EDEEE, American Peptide, Sunnyvale, Calif.). Reactions were carried out at 30° C. and 20 nM GSK-3β. Final concentrations of the components of the coupled enzyme system were 2.5 mM phosphoenolpyruvate, 300 μM NADH, 30 μg/ml pyruvate kinase and 10 μg/ml lactate dehydrogenase.
An assay stock buffer solution was prepared containing all of the reagents listed above with the exception of ATP and the test compound of interest. The assay stock buffer solution (175 μl) was incubated in a 96 well plate with 5 μl of the test compound of interest at final concentrations spanning 0.002 μM to 30 μM at 30° C. for 10 min. […] The reaction was initiated by the addition of 20 μl of ATP (final concentration 20 μM). Rates of reaction were obtained using a Molecular Devices Spectramax plate reader (Sunnyvale, Calif.) over 10 min at 30° C. The Ki values were determined from the rate data as a function of inhibitor concentration.
`CC(=O)Nc1ccc(Sc2nc(Nc3cc(C)[nH]n3)cc(-c3ccccc3)n2)cc1` [IIIa-11, [2-(4-Acetamido-phenylsulfanyl)-6-phenyl-pyrimidin-4-yl]-(5-methyl-2H-pyrazol-3-yl)-amine] had a Ki of 100 to 1000 nM.
Still for that read-out and setting: next, `CCC(=O)Nc1ccc(Sc2nc(Nc3cc(C)[nH]n3)cc(-c3ccccc3)n2)cc1` [IIIa-15, (5-Methyl-2H-pyrazol-3-yl)-[6-phenyl-2-(4-propionylamino-phenylsulfanyl)-pyrimidin-4-yl]-amine]: 1000 to 7000 nM.
As to `Cc1cc(Nc2cc(N3CCN(C)CC3)nc(SCc3ccccc3)n2)n[nH]1` [IIIa-28, [2-Benzylsulfanyl-6-(4-methylpiperazin-1-yl)-pyrimidin-4-yl]-(5-methyl-2H-pyrazol-3-yl)-amine], the Ki was in the range of 1000 to 7000 nM.
The same measure, in the same setting: under `Cc1cc(Nc2cc(N3CCOCC3)nc(SCc3ccccc3)n2)n[nH]1` [IIIa-29, [2-Benzylsulfanyl-6-morpholin-4-yl-pyrimidin-4-yl]-(5-methyl-2H-pyrazol-3-yl)-amine] stands 100 to 1000 nM; under `Cc1cc(Nc2cc(N3CCN(C)CC3)nc(SCc3cccc(Cl)c3)n2)n[nH]1` [IIIa-30, [2-(3-Chloro-benzylsulfanyl)-6-(4-methylpiperazin-1-yl)-pyrimidin-4-yl]-(5-methyl-2H-pyrazol-3-yl)-amine], 100 to 1000 nM.
Same read-out and setting: under `COc1ccc(CSc2nc(Nc3cc(C)[nH]n3)cc(N3CCN(C)CC3)n2)cc1` [IIIa-31, [2-(4-methoxy-benzylsulfanyl)-6-(4-methylpiperazin-1-yl)-pyrimidin-4-yl]-(5-methyl-2H-pyrazol-3-yl)-amine] stands 100 to 1000 nM; under `Cc1cc(Nc2cc(N3CCOCC3)nc(SCc3ccc(S(=O)(=O)N4CCOCC4)cc3)n2)n[nH]1` [IIIa-35, (5-Methyl-2H-pyrazol-3-yl)-{2-[4-(morpholinesulfonyl)-benzylsulfanyl]-6-morpholin-4-yl-pyrimidin-4-yl}-amine], 1000 to 7000 nM; under `CCC(=O)Nc1ccc(Sc2nc(COC)cc(Nc3cc(C)[nH]n3)n2)cc1` [IIIa-38, [6-Methoxymethyl-2-(4-propionylamino-phenyl-sulfanyl)-pyrimidin-4-yl]-(5-methyl-2H-pyrazol-3-yl)-amine], 1000 to 7000 nM.
On the same count and under the same terms, under `COc1cc(CSc2nc(Nc3cc(C)[nH]n3)cc(N3CCCC3)n2)cc(OC)c1` [IIIa-41, [2-(3,5-Dimethoxy-benzylsulfanyl)-6-pyrrolidin-4-yl-pyrimidin-4-yl]-(5-methyl-2H-pyrazol-3-yl)-amine] stands 1000 to 7000 nM; under `CCC(=O)Nc1ccc(Sc2nc(CO)cc(Nc3cc(C)n[nH]3)n2)cc1` [IIIa-45, [6-Hydroxymethyl-2-(4-propionylamino-phenyl-sulfanyl)-pyrimidin-4-yl]-(5-methyl-2H-pyrazol-3-yl)-amine], 1000 to 7000 nM.
For the compound `CNC(=O)c1cc(Nc2cc(C)[nH]n2)nc(Sc2ccc(NC(C)=O)cc2)n1` [IIIa-49], the Ki lay in the range of 1000 to 7000 nM.
Same read-out and setting: under `CC(=O)Nc1ccc(Oc2nc(Nc3cc(C)[nH]n3)cc(-c3ccccc3)n2)cc1` [IIIb-11] stands 100 to 1000 nM; under `Cc1cc(Nc2cc(-c3ccccc3)nc(Oc3ccc4ccccc4c3)n2)n[nH]1` [IIIb-12], 100 to 1000 nM.
Consider `Cc1cc(Nc2cc(-c3ccccc3)nc(Oc3ccc(NC(=O)C(C)C)cc3)n2)n[nH]1` [IIIb-13], for which the Ki was less than 100 nM.
Still for that read-out and setting: next, `Cc1cc(Nc2cc(-c3ccccc3)nc(Nc3ccccc3)n2)n[nH]1` [IIIc-1, (5-Methyl-2H-pyrazol-3-yl)-(6-phenyl-2-phenylamino-pyrimidin-4-yl)-amine]: 100 to 1000 nM.
Consider `COc1cc(-c2cc(Nc3cc(C)[nH]n3)nc(Nc3ccc(S(N)(=O)=O)cc3)n2)cc(OC)c1OC` [IIIc-8, (5-Methyl-2H-pyrazol-3-yl)-[2-(4-sulfamoylphenylamino)-6-(3,4,5-trimethoxyphenyl)-pyrimidin-4-yl]-amine], for which the Ki was in the range of 100 to 1000 nM.
The same measure, in the same setting: next, `Cc1cc(Nc2cc(-c3ccccc3)[nH]n2)nc(Nc2nc3ccccc3[nH]2)n1` [IIIc-16, [2-(Benzimidazol-2-ylamino)-6-methyl-pyrimidin-4-yl]-(5-phenyl-2H-pyrazol-3-yl)-amine]: 1000 to 7000 nM; `Cc1cc(Nc2cc(-c3ccco3)[nH]n2)nc(Nc2nc3ccccc3[nH]2)n1` [IIIc-17, [2-(Benzimidazol-2-ylamino)-6-methyl-pyrimidin-4-yl]-[5-(Furan-2-yl)-2H-pyrazol-3-yl]-amine]: 1000 to 7000 nM; `Cc1cc(Nc2cc(C)[nH]n2)nc(Nc2ccc(Cl)cc2)n1` [IIIc-18, [2-(4-Chlorophenylamino)-6-methyl-pyrimidin-4-yl]-(5-methyl-2H-pyrazol-3-yl)-amine]: less than 100 nM.
Compound `Cc1cc(Nc2nc(Nc3ccc(Cl)cc3)nc(C)c2C)n[nH]1` [IIIc-19, [2-(4-Chlorophenyl)amino-5,6-dimethyl-pyrimidin-4-yl]-(5-methyl-2H-pyrazol-3-yl)-amine] displayed a Ki of less than 100 nM.
Still for that read-out and setting: next, `Cc1cc(Nc2nc(Nc3ccccc3)nc(C)c2C)n[nH]1` [IIIc-20, (5,6-Dimethyl-2-phenylamino-pyrimidin-4-yl)-(5-methyl-2H-pyrazol-3-yl)-amine]: 100 to 1000 nM; `COCc1cc(Nc2cc(C)[nH]n2)nc(Nc2ccc(Cl)cc2)n1` [IIIc-21, [2-(4-Chlorophenyl)amino-6-methoxymethyl-pyrimidin-4-yl]-(5-methyl-2H-pyrazol-3-yl)-amine]: less than 100 nM.
Still for that read-out and setting: next, `COCc1cc(Nc2cc(C)[nH]n2)nc(Nc2nc3ccccc3[nH]2)n1` [IIIc-22, [2-(Benzimidazol-2-ylamino)-6-methoxymethyl-pyrimidin-4-yl]-(5-methyl-2H-pyrazol-3-yl)-amine]: 1000 to 7000 nM; `COCc1cc(Nc2cc(C)[nH]n2)nc(Nc2ccccc2)n1` [IIIc-23, (6-Methoxymethyl-2-phenylamino-pyrimidin-4-yl)-(5-methyl-2H-pyrazol-3-yl)-amine]: 100 to 1000 nM; `Cc1cc(Nc2cc(C)[nH]n2)nc(Nc2ccccc2)n1` [IIIc-24, (6-Methyl-2-phenylamino-pyrimidin-4-yl)-(5-methyl-2H-pyrazol-3-yl)-amine]: less than 100 nM.
Take `Cc1cc(Nc2cc(C)[nH]n2)nc(C(C)(C)c2ccccc2)n1` [IIId-21]: the Ki is less than 100 nM.
On the same count and under the same terms, next, `Cc1cc(Nc2nc(Nc3ccccc3)nc3c2CCCC3)n[nH]1` [IIc-45, (5-Methyl-2H-pyrazol-3-yl)-(2-phenylamino-5,6,7,8-tetrahydroquinazolinin-4-yl)-amine]: 100 to 1000 nM.
Still for that read-out and setting: under `c1ccc(Nc2nc(Nc3n[nH]c4ccccc34)c3ccccc3n2)cc1` [IIc-70, (1H-Indazol-3-yl)-(2-phenylamino-quinazolin-4-yl)-amine] stands 1000 to 7000 nM; under `FC(F)(F)c1ccc(Nc2nc(Nc3n[nH]c4ccccc34)c3ccccc3n2)cc1` [IIc-72, (1H-Indazol-3-yl)-[2-(4-trifluoromethylphenylamino)-quinazolin-4-yl]-amine], 100 to 1000 nM.
Still for that read-out and setting: under `N#CCc1ccc(Nc2nc(Nc3n[nH]c4ccccc34)c3ccccc3n2)cc1` [IIc-77, [2-(4-Cyanomethylphenylamino)-quinazolin-4-yl]-(1H-indazol-3-yl)-amine] stands less than 100 nM; under `Cc1cc(Nc2nc(Nc3ccc(Cl)cc3)nc3c2CCCC3)n[nH]1` [IIc-78, [2-(4-Chlorophenylamino)-5,6,7,8-tetrahydroquinazolinin-4-yl]-(5-methyl-2H-pyrazol-3-yl)-amine], less than 100 nM.
As for `Cc1cc(Nc2nc(Nc3ccccc3)nc3c2CCCCC3)n[nH]1` [IIc-79, (5-Methyl-2H-pyrazol-3-yl)-(2-phenylamino-6,7,8,9-tetrahydro-5H-cycloheptapyrimidin-4-yl)-amine], the Ki lay within 100 to 1000 nM.
As for `Cc1cc(Nc2nc(C(C)(C)c3ccccc3)nc3c2CCCCC3)n[nH]1` [IId-14], the Ki was less than 100 nM.
The same measure, in the same setting: under `c1ccc(C2CC2c2nc(Nc3n[nH]c4ccccc34)c3ccccc3n2)cc1` (centres unmarked) [IId-16, (1H-Indazol-3-yl)-[2-(2-phenyl-cyclopropyl)-quinazolin-4-yl]-amine] stands 100 to 1000 nM.
Turning to `Fc1cccc2c(Nc3nc(C4CC4c4ccccc4)nc4ccccc34)n[nH]c12` (centres unmarked) [IId-17, (7-Fluoro-1H-indazol-3-yl)-[2-(2-phenyl-cyclopropyl)-quinazolin-4-yl]-amine], the Ki lay in the range of 100 to 1000 nM.
The same measure, in the same setting: next, `Fc1ccc2[nH]nc(Nc3nc(C4CC4c4ccccc4)nc4ccccc34)c2c1` (centres unmarked) [IId-18, (5-Fluoro-1H-indazol-3-yl)-[2-(2-phenyl-cyclopropyl)-quinazolin-4-yl]-amine]: 100 to 1000 nM; `Cc1cc(Nc2nc(C3CC3c3ccccc3)nc3ccccc23)n[nH]1` (centres unmarked) [IId-19, (5-Methyl-1H-pyrazol-3-yl)-[2-(2-phenyl-cyclopropyl)-quinazolin-4-yl]-amine]: less than 100 nM.

Tested on in a further series: not given
Assay: not given
Conditions: not given
`Cc1cc(Nc2cc(-c3c(C)cccc3C)nc(Sc3ccc4ccccc4c3)n2)n[nH]1` [IIIa-9, [6-(2,6-Dimethylphenyl)-2-(naphthalen-2-ylsulfanyl)-pyrimidin-4-yl]-(5-methyl-2H-pyrazol-3-yl)-amine] came in with a melting point of 148 to 152 °C.
